The source of these data is PubChem BioAssay (NCI).

Some test systems named below: NCI-H226 lung; NCI/ADR-RES ovarian; MOLT-4 leukemia; SK-OV-3 ovarian; A498 renal; HOP-62 NSCLC; MALME-3M melanoma; OVCAR-5 ovarian; KM12 colon; DLD-1 colon.
Assay in all cases: growth of human tumour cells (NCI), 48 h

Each structure is given as a SMILES string. Where “and” joins values, the source holds several entries; their conditions need not be identical. Equal entries are not always repeated.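 Compound exposure: 48 hours, 5 concentrations, 96-well plates. The concentration for 50% growth inhibition is given as GI50. TGI is the concentration that stops growth completely.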

On to `COc1cc(C(=O)C2CC3(CCC2(O)c2cc(OC)c(OC)c(OC)c2)CC(=O)Nc2ccccc2C3=O)cc(OC)c1OC` (stereo not given), for which the TGI in the experiment with NCI-H226 lung, with NCI/ADR-RES ovarian, with MOLT-4 leukemia, in the experiment on SK-OV-3 ovarian, with A498 renal and in the experiment with HOP-62 NSCLC was greater than 100 µM in each case. In addition, the TGI in the experiment on MALME-3M melanoma and with OVCAR-5 ovarian was greater than 100 µM in each case.
On to `Cc1c(C2=NN=C(N=Nc3c(O)cccc3O)/C2=C/c2ccccc2)c(=O)n(-c2ccccc2)n1C`, for which the TGI in the experiment on NCI-H226 lung, with NCI/ADR-RES ovarian, in the experiment on MOLT-4 leukemia, with SK-OV-3 ovarian, in the experiment with A498 renal and with HOP-62 NSCLC was greater than 100 µM each time. The TGI with KM12 colon, with DLD-1 colon, in the experiment with MALME-3M melanoma and with OVCAR-5 ovarian was greater than 100 µM in each case.
As to `Nc1n[nH]c(CCCCCCCc2nc(N)n[nH]2)n1`, the TGI in the experiment on MOLT-4 leukemia, in the experiment with SK-OV-3 ovarian, with A498 renal, in the experiment with HOP-62 NSCLC, with KM12 colon and with DLD-1 colon was greater than 100 µM throughout. Besides, the TGI in the experiment on MALME-3M melanoma and with OVCAR-5 ovarian was greater than 100 µM in each case.
In the case of `CC(C)=CCC/C(C)=C/CCC1(C)C=Cc2c(c3ccccc3oc2=O)O1` (stereo not given), the TGI in the experiment on NCI-H226 lung was 30 µM; in the experiment on NCI/ADR-RES ovarian it was 31.1 µM; in the experiment on MOLT-4 leukemia it was greater than 72.7 µM; in the experiment with SK-OV-3 ovarian, 50.8 µM; in the experiment on A498 renal, 27.1 µM; in the experiment on HOP-62 NSCLC, 17.8 µM. In addition, the TGI in the experiment with KM12 colon was 33.2 µM; in the experiment on DLD-1 colon, 28.5 µM; in the experiment on MALME-3M melanoma, 43.7 µM; with OVCAR-5 ovarian, 32.6 µM.
For `CC1SC(c2ccc(Cl)cc2)N(CCc2cccs2)C1=O` (stereo not given), the GI50 is 1.5 µM in the experiment on NCI-H226 lung; 1.39 µM in the experiment on NCI/ADR-RES ovarian; 2.46 µM in the experiment on MOLT-4 leukemia; 2.05 µM in the experiment with SK-OV-3 ovarian; 1.21 µM in the experiment on A498 renal; 1.61 µM in the experiment with HOP-62 NSCLC. Also, the figures for the GI50 in the experiment on KM12 colon, in the experiment with MALME-3M melanoma and in the experiment with OVCAR-5 ovarian were 1.52 µM, 2120 nM and 1.85 µM, respectively. Further, the TGI in the experiment with NCI-H226 lung was 3.26 µM; in the experiment with NCI/ADR-RES ovarian, 3.2 µM; with MOLT-4 leukemia it was 9.11 µM; with SK-OV-3 ovarian it was 5.79 µM; with A498 renal, 2.47 µM; with HOP-62 NSCLC it was 3.16 µM. Also, the TGI with KM12 colon turned out to be 3.36 µM; in the experiment on MALME-3M melanoma, 4.05 µM; with OVCAR-5 ovarian, 4.56 µM.
Turning to `O=C(O)CCCc1ccccc1`, the GI50 in the experiment on NCI-H226 lung was 253 µM and > 1000 µM; in the experiment on NCI/ADR-RES ovarian, 83.1 µM and 21.2 µM; in the experiment on MOLT-4 leukemia, greater than 1000 µM; with SK-OV-3 ovarian, 522 µM and > 1000 µM; with A498 renal, greater than 1000 µM; in the experiment on HOP-62 NSCLC, 235 µM and > 1000 µM. Also, the GI50 with KM12 colon was greater than 1000 µM; in the experiment with OVCAR-5 ovarian, 456 µM and > 1000 µM. For the same compound, the TGI in the experiment on NCI-H226 lung is 917 µM and > 1000 µM; in the experiment on NCI/ADR-RES ovarian it was 343 µM and 47.1 µM; in the experiment with MOLT-4 leukemia, 394 µM and > 1000 µM; in the experiment on SK-OV-3 ovarian it was greater than 1000 µM; in the experiment with A498 renal, 302 µM and > 1000 µM; in the experiment with HOP-62 NSCLC, greater than 1000 µM. Besides, the TGI is 366 µM and > 1000 µM with KM12 colon; 121 µM and > 1000 µM in the experiment with MALME-3M melanoma; greater than 1000 µM in the experiment on OVCAR-5 ovarian.
For the compound `COCCOCOC(C)(C)[C@H](CCO)O[Si](c1ccccc1)(c1ccccc1)C(C)(C)C`, the TGI in the experiment on MOLT-4 leukemia stood at 22.9 µM; in the experiment with SK-OV-3 ovarian, 26.5 µM; with A498 renal, 31.6 µM; in the experiment on KM12 colon it was 31.9 µM; in the experiment on DLD-1 colon it was 22.4 µM; in the experiment on MALME-3M melanoma, 30.5 µM. In the experiment on OVCAR-5 ovarian, this compound yielded a TGI of 27.5 µM.
As to `O=C(O)C12CC3CC(C1)C2C=C3P(=O)(O)O` (stereo not given), the TGI in the experiment on NCI-H226 lung, with MOLT-4 leukemia, in the experiment with SK-OV-3 ovarian, with HOP-62 NSCLC, in the experiment with KM12 colon and in the experiment on DLD-1 colon was greater than 100 µM each time. The TGI with MALME-3M melanoma and in the experiment on OVCAR-5 ovarian was greater than 100 µM throughout.
As to `O=C1c2ccccc2C(=O)c2c1cc1c(c2[N+](=O)[O-])OCO1`, the GI50 with NCI-H226 lung was 2.06 µM; with NCI/ADR-RES ovarian, 1.15 µM; in the experiment with MOLT-4 leukemia, 0.794 µM; in the experiment on A498 renal it was 0.0824 µM; in the experiment on HOP-62 NSCLC, 1.74 µM; in the experiment on KM12 colon, 1.45 µM. Moreover, the GI50 was 2810 nM in the experiment on MALME-3M melanoma and 2.39 µM in the experiment on OVCAR-5 ovarian. In addition, the TGI was 7.16 µM with NCI-H226 lung; 8.87 µM in the experiment on NCI/ADR-RES ovarian; greater than 100 µM with MOLT-4 leukemia; 2.38 µM in the experiment with A498 renal; 5.19 µM with HOP-62 NSCLC; 5.94 µM with KM12 colon. Moreover, the TGI in the experiment on MALME-3M melanoma stood at 8.9 µM; with OVCAR-5 ovarian, 8.74 µM.
Take `c1ccc2cc3c(cc2c1)OP1(Oc2cccc4cccnc24)(O3)Oc2cc3ccccc3cc2O1`: the TGI is 44.5 µM in the experiment with NCI-H226 lung; 19.2 µM in the experiment on NCI/ADR-RES ovarian; greater than 96.6 µM with SK-OV-3 ovarian; 64.3 µM with A498 renal; greater than 73.3 µM in the experiment with HOP-62 NSCLC; 21.8 µM with KM12 colon. In addition, the TGI was greater than 100 µM in the experiment with DLD-1 colon, greater than 76.8 µM in the experiment with MALME-3M melanoma and 45.6 µM with OVCAR-5 ovarian.
Regarding `COc1cc(/C=C/C2=C(C#N)C(=O)OC2(C)C)ccc1O`, the TGI with NCI-H226 lung, in the experiment on MOLT-4 leukemia, with SK-OV-3 ovarian, in the experiment with A498 renal, in the experiment with HOP-62 NSCLC and in the experiment with KM12 colon was greater than 100 µM in each case. In addition, the TGI in the experiment on DLD-1 colon, with MALME-3M melanoma and in the experiment with OVCAR-5 ovarian was greater than 100 µM throughout.
